For data set [1], the system named is NCI-H460 Fluc tumours. Briefly: PET of NCI-H460 Fluc tumours on chick CAM. The data set is classed as in vivo, chicken. Conditions: for tumour uptake in CAM tumours: 60 min p.i.
The conditions of data set [2]: cited from earlier work.
The target of a further data set is PSMA (Homo sapiens, UniProt Q04609). Nature of the data set: automated lesion detection on 68Ga PSMA PET. In kind it is in vivo. The following applies: 17 PSMA-positive lesions.
Data set [3] in a line: doxorubicin-induced chronic cardiotoxicity model. In kind it is in vivo, C57BL/6J mice. The following applies: 8x3 mg/kg ip over 2 weeks.
Another data set concerns PDGFR-β. The data set is classed as in vivo, mouse. The following applies: imatinib for 3 weeks.
Another data set has as its target human mGlu2 receptors (Homo sapiens, UniProt Q14416). Briefly: radioligand binding in transfected CHO-K1 cells. The following applies: glutamate 10 μM.
In the next data set the test system is mGluR2. Briefly: [11C]mG2P001 PET/CT in monkeys. In kind it is in vivo, Cynomolgus fascicularis.
A short description of data set [4]: LogP of [99mTc]-DTPA-Collagen.
The next data set concerns S. aureus. Briefly: in vitro binding to S. aureus.
Another data set concerns Candida albicans 14053. Briefly: in vitro tracer uptake, yeast control.
Data set [5] can be described thus: in vitro stability of [99mTc]-DTPA-Collagen. Conditions: 50h post-incubation, Radio-TLC.
For the next data set, the system named is Escherichia coli 25922. Briefly: in vitro tracer uptake, Gram-negative control.
A further data set has as its system Gram-positive bacteria. Nature of the data set: in vitro tracer uptake, Gram-positive bacteria.
The nature of data set [6]: blood half-life and biodistribution of [99mTc]-DTPA-Collagen.
Data set [7] concerns NCI-H460 Fluc tumours. In kind it is in vivo, mice. Conditions: 60 min p.i.
Data set [8] has as its target norepinephrine transporter (NET) (Homo sapiens, UniProt P23975). Nature of the data set: competitive 3H-NE uptake assay in SK-N-SH cells. The data set is classed as cell-based. Conditions: read-out: IC50 of 3H-NE uptake; 60 min at 37°C, with pyrogallol and pargyline.

These results are taken from article PMC9844952 (Molecular Imaging and Biology, 2023).

PSMA, sequence (Q04609 whole entry): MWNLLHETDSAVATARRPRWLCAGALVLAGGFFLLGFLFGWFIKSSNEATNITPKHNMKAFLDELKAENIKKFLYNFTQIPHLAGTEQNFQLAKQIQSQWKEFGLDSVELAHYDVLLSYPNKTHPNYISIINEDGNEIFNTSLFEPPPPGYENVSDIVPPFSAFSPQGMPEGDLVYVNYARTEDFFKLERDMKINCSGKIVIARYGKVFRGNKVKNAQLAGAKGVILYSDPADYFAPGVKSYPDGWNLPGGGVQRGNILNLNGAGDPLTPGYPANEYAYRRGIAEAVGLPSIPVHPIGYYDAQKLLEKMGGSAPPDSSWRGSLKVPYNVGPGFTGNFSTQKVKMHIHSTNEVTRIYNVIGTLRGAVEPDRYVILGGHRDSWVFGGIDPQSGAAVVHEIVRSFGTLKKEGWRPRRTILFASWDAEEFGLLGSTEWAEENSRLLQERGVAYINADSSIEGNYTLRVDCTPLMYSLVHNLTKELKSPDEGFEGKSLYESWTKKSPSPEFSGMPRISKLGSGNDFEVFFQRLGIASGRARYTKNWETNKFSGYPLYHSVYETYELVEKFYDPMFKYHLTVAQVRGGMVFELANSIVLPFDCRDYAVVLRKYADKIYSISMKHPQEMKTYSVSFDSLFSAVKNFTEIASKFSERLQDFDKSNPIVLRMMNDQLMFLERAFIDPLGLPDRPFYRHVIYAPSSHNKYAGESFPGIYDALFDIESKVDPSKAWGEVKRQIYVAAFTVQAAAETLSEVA
norepinephrine transporter (NET), sequence (P23975 whole entry): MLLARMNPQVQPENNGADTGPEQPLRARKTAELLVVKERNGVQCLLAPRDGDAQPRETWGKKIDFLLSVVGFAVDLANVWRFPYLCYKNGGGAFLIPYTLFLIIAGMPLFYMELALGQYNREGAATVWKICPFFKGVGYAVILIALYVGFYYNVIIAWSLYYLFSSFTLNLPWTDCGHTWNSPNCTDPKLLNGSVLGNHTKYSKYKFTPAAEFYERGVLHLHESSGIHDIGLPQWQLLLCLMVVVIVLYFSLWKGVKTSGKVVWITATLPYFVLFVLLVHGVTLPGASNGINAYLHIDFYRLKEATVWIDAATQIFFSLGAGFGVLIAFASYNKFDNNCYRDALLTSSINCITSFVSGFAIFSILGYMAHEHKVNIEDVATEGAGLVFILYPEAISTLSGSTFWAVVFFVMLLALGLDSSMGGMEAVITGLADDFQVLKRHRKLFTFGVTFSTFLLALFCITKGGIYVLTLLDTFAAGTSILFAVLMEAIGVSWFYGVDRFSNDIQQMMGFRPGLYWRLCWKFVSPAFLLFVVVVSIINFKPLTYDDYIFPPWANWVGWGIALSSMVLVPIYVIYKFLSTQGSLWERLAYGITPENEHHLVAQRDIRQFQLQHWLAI
human mGlu2 receptors, sequence (Q14416 19-872): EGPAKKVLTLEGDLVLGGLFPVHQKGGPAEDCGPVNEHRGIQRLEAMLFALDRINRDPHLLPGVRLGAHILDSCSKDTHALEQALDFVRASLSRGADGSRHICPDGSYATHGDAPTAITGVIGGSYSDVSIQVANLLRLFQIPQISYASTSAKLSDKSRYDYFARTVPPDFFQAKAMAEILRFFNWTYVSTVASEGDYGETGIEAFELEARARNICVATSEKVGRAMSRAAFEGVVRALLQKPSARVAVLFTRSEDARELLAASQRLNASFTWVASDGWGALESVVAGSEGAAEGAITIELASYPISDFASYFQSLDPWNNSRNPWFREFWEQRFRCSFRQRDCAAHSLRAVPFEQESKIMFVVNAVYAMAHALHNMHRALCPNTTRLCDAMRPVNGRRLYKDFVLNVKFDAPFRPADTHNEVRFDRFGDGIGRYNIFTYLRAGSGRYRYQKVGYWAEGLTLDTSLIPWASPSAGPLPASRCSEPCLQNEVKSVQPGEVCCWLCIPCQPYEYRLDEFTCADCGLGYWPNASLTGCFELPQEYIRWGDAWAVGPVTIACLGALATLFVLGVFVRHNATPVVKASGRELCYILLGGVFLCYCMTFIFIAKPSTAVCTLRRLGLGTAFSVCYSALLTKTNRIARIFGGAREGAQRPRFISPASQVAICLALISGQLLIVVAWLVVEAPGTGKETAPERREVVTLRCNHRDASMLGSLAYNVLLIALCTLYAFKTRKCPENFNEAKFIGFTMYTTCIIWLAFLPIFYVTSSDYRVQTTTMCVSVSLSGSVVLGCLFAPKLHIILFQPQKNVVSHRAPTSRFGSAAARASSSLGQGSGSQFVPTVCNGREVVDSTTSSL

Turning to `N[C@@H](C[C@H](CCC[18F])C(=O)O)C(=O)O` [[18F]FSPG], in the data set on NCI-H460 Fluc tumours [1], the “tumour uptake in CAM tumours” value is recorded as 14.0 ± 5.5 %ID/g. Further, the “stable in human plasma” value in [2] was “up to 4 hours”.

Take `O=C([O-])CN(CCN(CC(=O)[O-])Cc1cc(CCC(=O)NCCCCCC(=O)NCCCC[C@H](NC(=O)N[C@@H](CCC(=O)O)C(=O)O)C(=O)O)ccc1[O-])Cc1cc(CCC(=O)O)ccc1[O-].[68Ga+3].[OH3+]` [68Ga PSMA]: on PSMA, the “diagnostic sensitivity of automated lesion detection” value worked out at 100%.

Compound `COc1cccc2c1C(=O)c1c(O)c3c(c(O)c1C2=O)C[C@@](O)(C(=O)CO)C[C@@H]3O[C@H]1C[C@H](N)[C@H](O)[C@H](C)O1` [doxorubicin] came in with an overall mortality rate in data set [3] of less than 20%.

Turning to `Cc1ccc(NC(=O)c2ccc(CN3CCN(C)CC3)cc2)cc1Nc1nccc(-c2cccnc2)n1` [imatinib], the “accumulation of Cy7-BiPPB in mutant kidneys under treatment” value with PDGFR-β was “decreased”.

On to `Cn1c(CN2CCC(c3ccc(C(F)(F)F)cc3O[11CH3])CC2)nc2ncccc21` [[11C]mG2P001, 2-((4-(2-[^11C]methoxy-4-(trifluoromethyl)phenyl)piperidin-1-yl)methyl)-1-methyl-1H-imidazo[4,5-b]pyridine], for which the “maximum enhancement of specific binding vs control” value at human mGlu2 receptors amounted to 2 fold. In the data set on mGluR2 (at 15 min), this compound had an SUVmax in brain of more than 3. Moreover, the “enhancement of accumulation (Logan VT)” value with mGluR2 (representative study, pretreatment with 0.6 mg/kg mG2P001 iv) is recorded as 33%.

On to “[99mTc]-DTPA-Collagen: Rat Tail Collagen I conjugated to DTPA and labeled with 99mTc”, for which the LogP in [4] was -3.69±0.58. Further, the “binding to S. aureus” value with S. aureus is listed as 66±3%. Besides, the in vitro uptake was determined as 12±3% with Candida albicans 14053, 9±2% in the data set with Escherichia coli 25922 and 63±7% in the data set with Gram-positive bacteria. Further, in data set [5], the stability entry is “higher than 90%”. Also, the blood circulation half-life in [6] (blood extraction) turned out to be 19 ± 2 min. Further, in data set [6] (rat, in vivo), the “liver uptake, ex vivo” value turned out to be 6.1±2.8 %ID/g. Further, the “spleen uptake, ex vivo” value in data set [6] (rat, in vivo) stood at 2.1±0.2 %ID/g.

Regarding `O=C[C@H]([18F])[C@@H](O)[C@H](O)[C@H](O)CO` [[18F]FDG, 18-fluorodeoxyglucose], the “tumour uptake in CAM tumours” value in the data set with NCI-H460 Fluc tumours [1] turned out to be 10.0 ± 2.1 %ID/g. In addition, the tumour-to-albumin ratio with NCI-H460 Fluc tumours [1] (i.v. ~3 MBq) is reported as 14.7. The “tumour uptake in mice” value in the data set on NCI-H460 Fluc tumours [7] came to 6.0 ± 1.4 %ID/g. Further, the “binding to S. aureus” value with S. aureus came to 21±1%.

Consider `N=C(N)NCc1cccc(I)c1` [MIBG, meta-iodobenzylguanidine], for which the IC50 in data set [8] came out at 1.75 ± 0.47 µM.

Usually LogP stands for the decadic logarithm of the partition coefficient of the neutral form, usually between octanol and water. A low value points to lower lipophilicity. One may read the IC50 as the midpoint of a concentration-inhibition curve.
